Reference: US20240239772A1, “PROTEASE INHIBITORS AND METHODS OF USE” (The Cleveland Clinic Foundation, priority 2021, published 2024)

Target: SARS-CoV-2 3CLpro (Severe acute respiratory syndrome coronavirus 2 (2019-nCoV) (SARS-CoV-2), UniProt P0DTD1)
Experiment: biochemical
Type: biochemical
Settings: not given

`CC(c1cc(F)cc(Cl)c1)N(C(=O)Cn1nnc2ccccc21)c1ccc(-c2c[nH]cn2)cc1` (racemic) [Compound 73, 2-(benzotriazol-1-yl)-N-[4-(1H-imidazol-4-yl)phenyl]-N-[rac-(1R)-1-(3-chloro-5-fluoro-phenyl)ethyl]acetamide] showed an IC50 of 100 nM.

Same assay, conditions: read-out: SARS-CoV-2 IC50

Compared with `O=C(Cn1nnc2ccccc21)N(Cc1ccsc1)c1ccc(-c2ccc[nH]c2=O)cc1` [Compound 17, 2-(1H-Benzo[d][1,2,3]triazol-1-yl)-N-(4-(2-oxo-1,2-dihydropyridin-3-yl)phenyl)-N-(thiophen-3-ylmethyl)acetamide], `Cn1cc(-c2ccc(N(Cc3ccsc3)C(=O)Cn3nnc4ccccc43)cc2)cn1` [Compound 18, 2-(Benzotriazol-1-yl)-N-[4-(1-methylpyrazol-4-yl)phenyl]-N-(3-thienylmethyl)acetamide] is 22-fold higher in IC50: 920 ± 210 nM for the first, 20400 ± 420 nM for the second. The first is the more potent here.

First: Cn1cnc(-c2ccc(N(Cc3ccsc3)C(=O)Cn3nnc4ccccc43)cc2)c1 [Compound 20, 2-(Benzotriazol-1-yl)-N-[4-(1-methylimidazol-4-yl)phenyl]-N-(3-thienylmethyl)acetamide]
Second: O=C(Cn1nnc2ccccc21)N(Cc1cccc(F)c1)c1ccc(-c2c[nH]cn2)cc1 [Compound 82, 2-(benzotriazol-1-yl)-N-[(3-fluorophenyl)methyl]-N-[4-(1H-imidazol-4-yl)phenyl]acetamide]
The IC50 of the first is 27-fold higher: 9550 ± 990 nM for the first, 360 nM for the second.

First: CC(C)CCN(C(=O)Cn1nnc2ccccc21)c1ccc(-c2cccnc2)cc1 [Compound 22, 2-(1H-Benzo[d][1,2,3]triazol-1-yl)-N-isopentyl-N-(4-(pyridin-3-yl)phenyl)acetamide]
Second: O=C(Cn1nnc2ccccc21)N(CC1CCC1)c1ccc(-c2cccnc2)cc1 [Compound 24, 2-(1H-Benzo[d][1,2,3]triazol-1-yl)-N-(cyclobutylmethyl)-N-(4-(pyridin-3-yl)phenyl)acetamide]
The IC50 of the first is 5.6-fold higher: 4620 ± 130 nM for the first, 830 ± 30 nM for the second. The second is the more potent here.

First: O=C(Cn1nnc2ccccc21)N(CC1CCCC1)c1ccc(-c2cccnc2)cc1 [Compound 25, 2-(1H-Benzo[d][1,2,3]triazol-1-yl)-N-(cyclopentylmethyl)-N-(4-(pyridin-3-yl)phenyl)acetamide]
Second: O=C(Cn1nnc2ccccc21)N(CC1COC1)c1ccc(-c2cccnc2)cc1 [Compound 70, 2-(1H-benzo[d][1,2,3]triazol-1-yl)-N-(oxetan-3-ylmethyl)-N-(4-(pyridin-3-yl)phenyl)acetamide]
The IC50 of the first is 28-fold lower: 1160 ± 190 nM for the first, 32000 nM for the second. The first is the more potent here.

Going from `O=C(Cn1nnc2ccccc21)N(Cc1cscn1)c1ccc(-c2cccnc2)cc1` [Compound 27, 2-(Benzotriazol-1-yl)-N-[4-(3-pyridyl)phenyl]-N-(thiazol-4-ylmethyl)acetamide] to `O=C(Cn1nnc2ccccc21)N(Cc1cncc(Cl)c1)c1ccc(-c2cccnc2)cc1` [Compound 34, 2-(Benzotriazol-1-yl)-N-[(5-chloro-3-pyridyl)methyl]-N-[4-(3-pyridyl)phenyl]acetamide], the IC50 falls from 1590 ± 440 nM to 540 ± 70 nM (2.9-fold).

Going from `O=C(Cn1nnc2ccccc21)N(Cc1ccc(F)c(Cl)c1)c1ccc(-c2cccnc2)cc1` [Compound 29, 2-(Benzotriazol-1-yl)-N-[(3-chloro-4-fluoro-phenyl)methyl]-N-[4-(3-pyridyl)phenyl]acetamide] to `Cc1ccc(CN(C(=O)Cn2nnc3ccccc32)c2ccc(-c3cccnc3)cc2)cc1Cl` [Compound 71, 2-(1H-benzo[d][1,2,3]triazol-1-yl)-N-(3-chloro-4-methylbenzyl)-N-(4-(pyridin-3-yl)phenyl)acetamide], the IC50 rises from 8530 ± 1820 nM to > 50000 nM.

Compared with `O=C(Cn1nnc2ccccc21)N(Cc1cc(Cl)cc(Cl)c1)c1ccc(-c2cccnc2)cc1` [Compound 32, 2-(Benzotriazol-1-yl)-N-[(3,5-dichlorophenyl)methyl]-N-[4-(3-pyridyl)phenyl]acetamide], `Cc1cc(Cl)cc(CN(C(=O)Cn2nnc3ccccc32)c2ccc(-c3cccnc3)cc2)c1` [Compound 33, 2-(Benzotriazol-1-yl)-N-[(3-chloro-5-methyl-phenyl)methyl]-N-[4-(3-pyridyl)phenyl]acetamide] is 1.8-fold higher in IC50: 176 ± 25 nM for the first, 312 ± 73 nM for the second.

`O=C(Cn1nnc2ccccc21)N(CC1CCCC1)c1ccc(-c2ccc[nH]c2=O)cc1` [Compound 68, 2-(1H-benzo[d][1,2,3]triazol-1-yl)-N-(cyclopentylmethyl)-N-(4-(2-oxo-1,2-dihydropyridin-3-yl)phenyl)acetamide] and `O=C(Cn1nnc2ccccc21)N(CC1CCC1)c1ccc(-c2c[nH]cn2)cc1` [Compound 79, 2-(benzotriazol-1-yl)-N-(cyclobutylmethyl)-N-[4-(1H-imidazol-4-yl)phenyl]acetamide] are within 1.5-fold of each other in IC50: 1300 nM for the first, 1100 nM for the second.

`Cc1[nH]ncc1-c1ccc(N(Cc2cccc(Cl)c2)C(=O)Cn2nnc3ccccc32)cc1` [Compound 69, 2-(1H-benzo[d][1,2,3]triazol-1-yl)-N-(3-chlorobenzyl)-N-(4-(5-methyl-1H-pyrazol-4-yl)phenyl)acetamide] and `Cc1[nH]cnc1-c1ccc(N(Cc2cc(F)cc(Cl)c2)C(=O)Cn2nnc3ccccc32)cc1` [Compound 74, 2-(benzotriazol-1-yl)-N-[(3-chloro-5-fluoro-phenyl)methyl]-N-[4-(5-methyl-1H-imidazol-4-yl)phenyl]acetamide] are within 1.5-fold of each other in IC50: 380 nM for the first, 350 nM for the second.

First: O=C(Cn1nnc2ccccc21)N(Cc1cc(F)cc(Cl)c1)c1ccc(-c2c[nH]cn2)cc1 [Compound 72, 2-(benzotriazol-1-yl)-N-[(3-chloro-5-fluoro-phenyl)methyl]-N-[4-(1H-imidazol-4-yl)phenyl]acetamide]
Second: O=C(Cn1nnc2ccccc21)N(Cc1cc(F)cc(F)c1)c1ccc(-c2c[nH]cn2)cc1 [Compound 78, 2-(benzotriazol-1-yl)-N-[(3,5-difluorophenyl)methyl]-N-[4-(1H-imidazol-4-yl)phenyl]acetamide]
The IC50 of the first is 1.8-fold lower: 52 nM for the first, 95 nM for the second.

`O=C(Cn1nnc2ccccc21)N(Cc1cc(F)cc(Cl)c1)c1ccc(-c2c[nH]cn2)cn1` [Compound 75, 2-(benzotriazol-1-yl)-N-[(3-chloro-5-fluoro-phenyl)methyl]-N-[5-(1H-imidazol-4-yl)-2-pyridyl]acetamide] and `COc1cc(Cl)cc(CN(C(=O)Cn2nnc3ccccc32)c2ccc(-c3c[nH]cn3)cc2)c1` [Compound 87, 2-(benzotriazol-1-yl)-N-[(3-chloro-5-methoxy-phenyl)methyl]-N-[4-(1H-imidazol-4-yl)phenyl]acetamide] are within 1.5-fold of each other in IC50: 62 nM for the first, 57 nM for the second.

Compared with `O=C(Cn1nnc2ccccc21)N(Cc1cccc(C(F)(F)F)c1)c1ccc(-c2c[nH]cn2)cc1` [Compound 76, 2-(benzotriazol-1-yl)-N-[4-(1H-imidazol-4-yl)phenyl]-N-[[3-(trifluoromethyl)phenyl]methyl]acetamide], `N#Cc1cccc(CN(C(=O)Cn2nnc3ccccc32)c2ccc(-c3c[nH]cn3)cc2)c1` [Compound 77, 2-(benzotriazol-1-yl)-N-[(3-cyanophenyl)methyl]-N-[4-(1H-imidazol-4-yl)phenyl]acetamide] is 2.4-fold higher in IC50: 270 nM for the first, 640 nM for the second.

Going from `O=C(Cn1nnc2ccccc21)N(Cc1cc(F)ccc1F)c1ccc(-c2c[nH]cn2)cc1` [Compound 80, 2-(benzotriazol-1-yl)-N-[(2,5-difluorophenyl)methyl]-N-[4-(1H-imidazol-4-yl)phenyl]acetamide] to `O=C(Cn1nnc2ccccc21)N(Cc1cc(Cl)ccc1F)c1ccc(-c2c[nH]cn2)cc1` [Compound 83, 2-(benzotriazol-1-yl)-N-[(5-chloro-2-fluoro-phenyl)methyl]-N-[4-(1H-imidazol-4-yl)phenyl]acetamide], the IC50 falls from 220 nM to 76 nM (2.9-fold).

First: O=C(Cn1nnc2ccccc21)N(Cc1cccc(F)c1F)c1ccc(-c2c[nH]cn2)cc1 [Compound 81, 2-(benzotriazol-1-yl)-N-[(2,3-difluorophenyl)methyl]-N-[4-(1H-imidazol-4-yl)phenyl]acetamide]
Second: O=C(Cn1nnc2ccccc21)N(Cc1cccc(Cl)c1F)c1ccc(-c2c[nH]cn2)cc1 [Compound 84, 2-(benzotriazol-1-yl)-N-[(3-chloro-2-fluoro-phenyl)methyl]-N-[4-(1H-imidazol-4-yl)phenyl]acetamide]
The IC50 of the first is 1.7-fold higher: 400 nM for the first, 230 nM for the second. The second is the more potent here.

First: O=C(Cn1nnc2ccccc21)N(Cc1cncc(Cl)c1)c1ccc(-c2c[nH]cn2)cc1 [Compound 85, 2-(benzotriazol-1-yl)-N-[(5-chloro-3-pyridyl)methyl]-N-[4-(1H-imidazol-4-yl)phenyl]acetamide]
Second: COc1ccc(Cl)cc1CN(C(=O)Cn1nnc2ccccc21)c1ccc(-c2c[nH]cn2)cc1 [Compound 86, 2-(benzotriazol-1-yl)-N-[(5-chloro-2-methoxy-phenyl)methyl]-N-[4-(1H-imidazol-4-yl)phenyl]acetamide]
The IC50 of the first is 2-fold lower: 89 nM for the first, 180 nM for the second. The first is the more potent here.

Going from `CC(c1cc(F)cc(F)c1)N(C(=O)Cn1nnc2ccccc21)c1ccc(-c2c[nH]cn2)cc1` (stereo not shown) [Compound 88, 2-(benzotriazol-1-yl)-N-[1-(3,5-difluorophenyl)ethyl]-N-[4-(1H-imidazol-4-yl)phenyl]acetamide] to `CC(C)CN(C(=O)Cn1nnc2ccccc21)c1ccc(-c2c[nH]cn2)cc1` [Compound 89, 2-(benzotriazol-1-yl)-N-[4-(1H-imidazol-4-yl)phenyl]-N-isobutyl-acetamide], the IC50 rises from 160 nM to 680 nM (4.2-fold).

Going from `O=C(Cn1nnc2ccccc21)N(Cc1cc(F)cc(F)c1)c1ccc(C2CCNCC2)cc1` [Compound 90, 2-(benzotriazol-1-yl)-N-[(3,5-difluorophenyl)methyl]-N-[4-(4-piperidyl)phenyl]acetamide] to `O=C(Cn1nnc2ccccc21)N(Cc1cc(F)cc(F)c1)c1ccc(C2=CCNC2)cc1` [Compound 91, 2-(benzotriazol-1-yl)-N-[(3,5-difluorophenyl)methyl]-N-[4-(2,5-dihydro-1H-pyrrol-3-yl)phenyl]acetamide], the IC50 falls from 1700 nM to 130 nM (13-fold).

Going from `COC(=O)Cc1ccc(N(Cc2cc(F)cc(F)c2)C(=O)Cn2nnc3ccccc32)cc1` [Compound 92, methyl 2-[4-[[2-(benzotriazol-1-yl)acetyl]-[(3,5-difluorophenyl)methyl]amino]phenyl]acetate] to `O=C(O)Cc1ccc(N(Cc2cc(F)cc(F)c2)C(=O)Cn2nnc3ccccc32)cc1` [Compound 93, 2-[4-[[2-(benzotriazol-1-yl)acetyl]-[(3,5-difluorophenyl)methyl]amino]phenyl]acetic acid], the IC50 rises from 1800 nM to 23000 nM (13-fold).
